In US8889378B2, “Cytochrome C synthesis inhibitors” (priority 2006, dated 2014):

What was measured:
[1] = tested on: system I cytochrome c biogenesis (heme acquisition); assay: Exogenous heme addition, E. coli ΔccmΔhemA (RK105) with system I, pRGK332 and pHPEX2; assay type: cell-based
Procedure: (§1) Cultures of RK105 (E. coli ΔccmΔhemA) harboring pRGK333 (system I), pRGK332 (cytochrome c4:6×His), and pHPEX2 (Varnado and Goodwin, 2004) or pRGK348 (system II) and pRGK332 were grown in LB overnight in the presence of 300 μM aminolevulinic acid (ALA). 100 mL cultures were started from the overnight culture with a 1% inoculum in LB devoid of ALA for two and one-half hours. After two and one-half hours, the 100 mL cultures had exhausted their cellular supply of ALA and required exogenous heme (or ALA) for further growth. The ALA exhausted cultures were divided into 5 mL aliquots to which IPTG (1 mM, to induce the synthesis of the system I proteins) and heme (0 μM to 100 μM) (Sigma) were added. It was discovered that heme at greater than 60 μM would precipitate over time with no IPTG (1 mM) present and at greater than 100 μM in the presence of IPTG. After one hour, arabinose (0.2% to induce the synthesis of cytochrome c4:6×His) was added and cultures were grown for an additional three hours. Cells were harvested and protein was extracted using B-PER as previously described (Feissner et al., 2006). […]
Heme stains were performed as described (Feissner et al., 2003) using SuperSignal Femto chemiluminescent substrate (Pierce). Heme stain quantitation used LOLITA II (Low Light Test Array; raytestUSA; Wilmington, N.C.) for standardization of light intensity detection on an LAS1000plus Luminescent Image Analyzer CCD camera system. […] Chemiluminescence from heme stains and Western blots were detected using an LAS-1000plus Luminescent Image Analyzer CCD camera system (Fujifilm). Protein concentrations were determined using the BCA assay (Pierce) using BSA as a standard. […] Protein concentrations were determined with the BCA assay kit (Pierce) using BSA as a standard.
To directly examine the difference in heme acquisition between systems I and II, varying concentrations of exogenous heme were supplied to E. coli ΔccmΔhemA, expressing ChuA with pRGK332 and either system plasmid. […] The cytochrome c4 acts as a trap, allowing quantitation of the levels of heme that have fluxed through each system. […]

[2] = tested on: system II (CcsBA) cytochrome c biogenesis (heme acquisition); assay: Exogenous heme addition, E. coli ΔccmΔhemA (RK105) with system II (CcsBA), chuA and pRGK332; assay type: cell-based; conditions: averaged over 3 trials, Hill curve fit, read-out: heme concentration at which holocytochrome c4:6×His levels reached 50% of maximum synthesis
Procedure: Cultures of RK105 (E. coli ΔccmΔhemA) harboring pRGK333 (system I), pRGK332 (cytochrome c4:6×His), and pHPEX2 (Varnado and Goodwin, 2004) or pRGK348 (system II) and pRGK332 were grown in LB overnight in the presence of 300 μM aminolevulinic acid (ALA). 100 mL cultures were started from the overnight culture with a 1% inoculum in LB devoid of ALA for two and one-half hours. After two and one-half hours, the 100 mL cultures had exhausted their cellular supply of ALA and required exogenous heme (or ALA) for further growth. The ALA exhausted cultures were divided into 5 mL aliquots to which IPTG (1 mM, to induce the synthesis of the system I proteins) and heme (0 μM to 100 μM) (Sigma) were added. […]
Heme stains were performed as described (Feissner et al., 2003) using SuperSignal Femto chemiluminescent substrate (Pierce). Heme stain quantitation used LOLITA II (Low Light Test Array; raytestUSA; Wilmington, N.C.) for standardization of light intensity detection on an LAS1000plus Luminescent Image Analyzer CCD camera system. […] Chemiluminescence from heme stains and Western blots were detected using an LAS-1000plus Luminescent Image Analyzer CCD camera system (Fujifilm). Protein concentrations were determined using the BCA assay (Pierce) using BSA as a standard. […] Protein concentrations were determined with the BCA assay kit (Pierce) using BSA as a standard. […]

[3] = Heme precipitation in culture medium; assay type: physicochemical
Procedure: as §1, with “2006). Cytochrome c4:6×His was purified from 200 μg of total protein over nickel affinity resin to eliminate free heme. 20 μL of each sample were subjected to SDS-PAGE, transferred to nitrocellulose, and heme stained as described above.” for “2006).”

[4] = tested on: E. coli ΔccmΔhemA; assay: Growth of E. coli ΔccmΔhemA on exogenous heme, without or with the heme porin ChuA (pHPEX2); assay type: cell-based
Procedure: FIG. 13. Growth of E. coli DccmDhemA with exogenous heme. Overnight cultures of E. coli DccmDhemA or containing pHPEX2 and (A) pRGK333 or (B) pRGK334 were diluted into LB broth without ALA or heme. The cultures were incubated aerobically at 37° C. for two and one-half hours to exhaust the cultures for ALA. Heme was added at the indicated concentrations when noted and growth (A600) was measured. For reference, the growth of E. coli Dccm (wild-type) containing either pRGK333 or pRGK334 is shown (t).
To determine if exogenous heme rather than ALA could support growth, an overnight culture of E. coli ΔccmΔhemA, supplemented with 300 μM ALA, was used to inoculate [1% (v/v)] fresh LB medium containing different concentrations of heme (0 μM to 100 μM).
Since the outer membranes of some strains of E. coli are poorly permeable to heme, the heme porin from pHPEX2 (Varnado and Goodwin, 2004) was expressed. The tetracycline-resistant pHPEX2 expresses the gene for the heme receptor (chuA) from E. coli O157:H7 using the IPTG-inducible lacUV5 promoter. ChuA is a member of a class of relatively nonspecific enterobacterial heme receptors that are TonB-dependent and facilitate heme acquisition from the environment and recognize free heme and heme bound to a variety of proteins (see FIG. 11). Growth of E. coli ΔccmΔhemA containing either pRGK333 or pRGK334 and pHPEX2 was dependant on exogenous heme (see FIG. 13). […] The pHPEX2 also facilitates the heme-dependent production of the B. pertussis c4:6×His when the plasmids with system I or system II are present (see below).

[5] = tested on: system I cytochrome c biogenesis; assay: Heme competition with ZnPPIX inhibition, E. coli Δccm with system I, ChuA and cytochrome c4:Pho; assay type: cell-based; conditions: grown with 12.5 μM ZnPPIX
Procedure: FIG. 22. Western blot (A: lanes 1-7) and heme stain (B: lanes 1-5) indicating ZnPPIX competes with heme. Overnight cultures of E. coli Dccm containing pRGK333, pRGK331, and pHPEX2 were diluted into fresh LB broth containing […] ZnPPIX and grown to mid-log phase. IPTG (1 mM) was added and incubation continued for 30 minutes. Heme was added and incubation continued for 30 minutes. Arabinose (0.2%) was added for three hours to induce synthesis of cytochrome c4:PhoA and soluble B-PER protein extracts were prepared. The concentrations ([…]) of ZnPPIX and heme are given above each lane. Above the panel pSysI is pRGK333, pc4:PhoA is cytochrome c4:PhoA, and Dccm is E. coli Dcam.
ZnPPIX is inhibiting downstream of holoCcmE since this “heme reservoir” is no longer available for cytochrome c4 biogenesis. The WWD containing protein CcmF may the target for ZnPPIX (see FIG. 11). If the target for ZnPPIX is a heme binding protein (site), then exogenous heme should compete with this inhibition (i.e. ZnPPIX binding). […] The same heme stained polypeptides were confirmed to be full length cytochrome c4:Pho fusion proteins by Western blot (FIG. 22A, lane 1-5). ZnPPIX is a specific inhibitor of c-type cytochrome biogenesis by either system I or system II, but heme is able to compete with ZnPPIX inhibition.

## iron protoporphyrin IX [heme]
[1]; system I
  heme concentration at which maximum synthesis of holocytochrome c4:6×His occurs: less than 10 μM
[1]; system I compared with system II
  apparent affinity for heme, system I versus system II: at least twenty fold higher
[1]; system I, averaged over 4 trials, Hill curve fit, read-out: heme concentration restoring holocytochrome c4:6×His levels to 50% of maximum
  EC50: 1.9 µM
[2]
  EC50: 54.4 µM
[3]; in the presence of IPTG
  heme concentration above which heme would precipitate over time: greater than 100 μM
[3]; no IPTG (1 mM) present
  heme concentration above which heme would precipitate over time: greater than 60 μM
[4]; chuA (pHPEX2) expressed, pRGK333 or pRGK334
  growth on exogenous heme: growth to near wild-type levels
[4]; heme 0 μM to 100 μM, no heme porin
  growth on exogenous heme: not detected until four to five days
[4]; no heme porin, system I or system II plasmid and c4:6×His reporter
  holocytochrome c4:6×His production on exogenous heme: no holocytochrome c4:6×His production was detected
[5]
  holocytochrome c4:Pho with increasing concentrations of additional heme: corresponding increase in holocytochrome c4:Pho
